Measured values published in patent US20150010474A1, “Compounds And Methods For Selective Imaging And/Or Ablation” (Auckland Uniservices Limited, priority 2011, published 2015).

How the values were obtained:
[1] = One-electron reduction potential E(1) by pulse radiolysis; assay type: physicochemical; settings: determined against methylviologen, E(1)MV2+/MV+. = −447 ± 7 mV
Excerpt: The E(1) values of many compounds can be obtained from the literature, (for example, Wardman, P. J. Phys. Chem. Ref. Data, 1989, 18, 1637-1755.) or determined by a number of methods. The pulse radiolysis method, for example, measures the equilibrium constant between the radical anions of the nitroheterocyclic or nitroaromatic compound, formed upon their 1-electron reduction, and reference standards such as viologen and quinone compounds, from which data the E(1) values of the compounds can be calculated. (Meisel and Czapski. J. Phys. Chem., 1975, 79, 1503-1509.)
(Anderson et al, J. Phys. Chem. A, 101, 9704-9709, 1997).

[2] = test system: human solid tumour xenograft HCT116 (WT); experiment: Hypoxia-dependent binding by immunofluorescent microscopy with pimonidazole co-staining; assay type: in vivo, NIH-III nude mice; settings: 60 mg/kg i.p., 60 minutes after 60 mg/kg pimonidazole; tumours excised after 120 minutes
Method: FIG. 9 illustrates the absence of hypoxic dependent binding of compound 67 in the human solid tumour xenograft HCT116 relative to compound 15 whilst including hypoxia co-staining by pimonidazole (Hypoxyprobe™) as an internal reference (positive control). HCT116 WT tumours were inoculated subcutaneously onto the flank of NIH-Ill nude mice. When the mixed tumours reached approximately 500 mm^3, mice were dosed i.p. with 60 mg/kg of pimonidazole, and 60 minutes later dosed with either 60 mg/kg of compound 15 or 60 mg/kg of compound 67. After 120 minutes the tumours were excised, and fixed in formalin before being embedded in paraffin wax. Tumour section were cut (5 microns) and mounted onto glass slides for immunodetection of bound adducts of compounds. Immunofluorescent microscopy was performed using a monoclonal antibody (Mab1, hybridoma clone 4.3.11.3) conjugated to Alexa-488 (green) for the detection of pimonidazole adducts, and monoclonal antibody ELK3-51 directly conjugated to the fluorophore CY5 (Ex/Em 650/670 nm) for detection of adducts formed by compound 15 or compound 67. The overlap of pimonidazole with either one of these markers appears as yellow. Images were acquired on a Zeiss LSM 710 confocal microscope (×20 magnification).

wild-type HCT-116 cells = experiment: Flow cytometry of metabolism and binding (EF5 antibody); assay type: cell-based, human; settings: for Metabolism and binding by FACS, wild-type HCT-116 cells (FIG. 3): 20 μM, 2 hours, oxic conditions (21% O2, 5% CO2)
Method: FIG. 3 illustrates the results of flow cytometry analysis of HCT-116 cells stably expressing E. coli NfsA relative to HCT-116 wild-type cells after in vitro exposure to 20 μM of compounds 15, 93 and 67 for 2 hours. 1×10^6 cells were incubated with test compounds under oxic conditions. Samples were fixed and stained with EF5 antibody Alexa 488 ELK3.51 at 100 μg/ml. Samples were then analysed on a Becton Dickinson FACscan flow cytometer.
(§1) FIG. 4 illustrates the results of a second independent flow cytometry analysis of compound 15 and 93 metabolism and binding in wild-type HCT-116 cells, HCT-116 cells stably over-expressing cytochrome P450 reductase (CYPOR), a human one-electron reductase known to metabolise nitroheterocyclic and nitroaromatic compounds, or HCT-116 cells stably expressing the bacterial nitroreductase E. coli NfsA. 1×10^6HCT-116 cells were seeded in 6 well plates underaerobic conditions (21% O2, 5% CO2). After 2 h incubation, drug free control (wild-type HCT-116, foreground), 20 μM (wild-type HCT-116, second plot), 100 μM (wild-type HCT-116, third plot), 20 μM (HCT-116-CYPOR, forth plot), 100 μM (HCT-116-CYPOR, fifth plot) or 20 μM (HCT-116-NfsA, sixth plot) of compound 15 or 93 was added. After 2 h incubation cells were harvested and fixed with paraformaldehyde before being incubated overnight with 100 μl of 75 μg/ml EF5 CY5 conjugated antibody. Samples were then analysed on a Becton Dickinson FACscan flow cytometer.
(§2) FIG. 6 illustrates the results of flow cytometry analysis of compound 15 and 93 metabolism and binding in wild-type HCT-116 cells and HCT-116 cells stably over-expressing cytochrome P450 reductase (CYPOR), a human one-electron reductase known to metabolise nitroheterocyclic and nitroaromatic compounds. 1×10^6 HCT-116 cells were seeded in 6 well plates underanoxic conditions. After 2 h incubation, drug free control (wild-type HCT-116, foreground), 20 μM (wild-type HCT-116, second plot), 100 μM (wild-type HCT-116, third plot), 20 μM (HCT-116-CYPOR, forth plot) or 100 μM (HCT-116-CYPOR, fifth plot) of compound 15 or 93 was added. After 2 h incubation cells were harvested and fixed with paraformaldehyde before being incubated overnight with 100 μl of 75 μg/ml EF5 CY5 conjugated antibody. Samples were then analysed on a Becton Dickinson FACscan flow cytometer.

[3] = test system: HCT-116 cells stably over-expressing cytochrome P450 reductase (CYPOR); experiment: as above; assay type: cell-based, human; settings: 2 h
Method: as §1
FIG. 5 illustrates the results of flow cytometry analysis of HCT-116 cells stably over-expressing cytochrome P450 reductase (CYPOR), a human one-electron reductase known to metabolise nitroheterocyclic and nitroaromatic compounds. 1×10^6HCT-116-CYPOR cells were seeded in 6 well plates in aerobic, anoxic and 0.2% oxygen conditions designed to replicate the lower limit of pathological hypoxia observed in human tumours. After 2 h incubation, drug free control (foreground), 20 μM (middle) or 100 μM (background) of compound 15 or 67 was added. After 2 h incubation cells were harvested and fixed with paraformaldehyde before being incubated overnight with 100 μl of 75 μg/ml EF5 CY5 conjugated antibody. Samples were then analysed on a Becton Dickinson FAC scan flow cytometer.
as §2

NfsB (E.c) = molecular target: T1, NfsB (E.c) (Escherichia coli, UniProt P38489); experiment: Initial rate of metabolism by purified recombinant bacterial nitroreductase (NADPH consumption, UV/Vis); assay type: biochemical; settings: compound 500 μM, NADPH 200 μM, 10 mM Tris-Cl pH 7.0; μmol NADPH consumed per mg enzyme per minute
T1 construct: made in house
T1 sequence (P38489 whole entry): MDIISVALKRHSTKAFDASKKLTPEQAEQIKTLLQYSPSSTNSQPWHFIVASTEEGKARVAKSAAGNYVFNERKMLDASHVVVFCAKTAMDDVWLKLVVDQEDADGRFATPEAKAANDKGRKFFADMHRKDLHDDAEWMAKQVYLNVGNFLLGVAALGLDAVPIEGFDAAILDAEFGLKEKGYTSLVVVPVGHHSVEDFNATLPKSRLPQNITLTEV
Method: The relative initial rates of reductive metabolism of the nitro moiety of test compounds by bacterial nitroreductase's can be measured experimentally by incubating the test compound at near-saturating concentration (determined empirically) with the purified recombinant bacterial nitroreductase enzymes in the presence of NADPH co-factor. UV/Vis spectroscopy is used to measure consumption of the co-factor, indicating metabolism of the test compound by the nitroreductase.
Compounds 67, 93 and 97 (500 μM) were added to NADPH (200 μM) in 10 mM Tris-Cl pH 7.0. Reactions were initiated by enzyme addition (between 5 and 20 μg per reaction). Rates represent μmol of NADPH consumed per mg enzyme added per minute.

Cc1ncc([N+](=O)[O-])n1CC(=O)NCC(F)(F)C(F)(F)F [Compound 67, 2-(2-methyl-5-nitro-1H-imidazol-1-yl)-N-(2,2,3,3,3-pentafluoropropyl)acetamide]
melting point: 149 to 151 °C | E(1)/V [1]: −0.501 V | Hypoxia-dependent binding in HCT116 WT tumours (FIG. 9) [2]: not detected in the pimonidazole positive hypoxic regions of the tumour | Metabolism and binding by FACS, wild-type HCT-116 cells (FIG. 3) (wild-type HCT-116 cells): minimal metabolism and binding | Metabolism and binding by FACS, HCT-116-CYPOR cells, 0.2% oxygen (FIG. 5) ([3]; 20 μM or 100 μM, 0.2% oxygen): negligible metabolism and binding | Metabolism and binding by FACS, HCT-116-CYPOR cells, aerobic (FIG. 5) ([3]; 20 μM or 100 μM, aerobic): negligible metabolism and binding

O=C(Cn1cnc([N+](=O)[O-])c1)NCC(F)(F)C(F)(F)F [Compound 93, 2-(4-nitro-1H-imidazol-1-yl)-N-(2,2,3,3,3-pentafluoropropyl)acetamide]
E(1)/V [1]: −0.578 V | Rate of metabolism by NfsB (E.c) (NfsB (E.c)): 0.82 µmol/min/mg | Metabolism and binding by FACS, wild-type HCT-116 cells (FIG. 4) (wild-type HCT-116 cells; 20 μM and 100 μM, 2 h, aerobic conditions): minimal metabolism and binding | Metabolism and binding by FACS, wild-type HCT-116 cells, anoxia (FIG. 6) (wild-type HCT-116 cells; 20 μM and 100 μM, 2 h, anoxic conditions): negligible metabolism and binding | Metabolism and binding by FACS, wild-type HCT-116 cells (FIG. 3) (wild-type HCT-116 cells): minimal metabolism and binding | Metabolism and binding by FACS, HCT-116-CYPOR cells (FIG. 4) ([3]; 20 μM and 100 μM, aerobic conditions): minimal metabolism and binding | Metabolism and binding by FACS, HCT-116-CYPOR cells, anoxia (FIG. 6) ([3]; 20 μM and 100 μM, anoxic conditions): negligible metabolism and binding
